Results: ChEMBL document CHEMBL4219072, “Enhancing the anti-biofilm activity of 5-aryl-2-aminoimidazoles through nature inspired dimerisation” (Bioorg Med Chem, 2018)

Columns and labels:
Escherichia coli [1] = assay: Antibiofilm activity against Escherichia coli TG1 after 24 hrs by crystal violet staining based assay; assay type: functional, organism-based; conditions: TG1, 24 h
Staphylococcus aureus [2] = assay: Antibiofilm activity against Staphylococcus aureus SH1000 after 48 hrs by crystal violet staining based assay; assay type: functional, organism-based; conditions: SH1000, 48 h
Salmonella typhimurium [3] = assay: Antibiofilm activity against Salmonella typhimurium ATCC 14028 after 24 hrs by crystal violet staining based assay; assay type: functional, organism-based, Salmonella enterica subsp. enterica serovar Typhimurium; conditions: Salmonella enterica, ATCC 14028, 24 h
Pseudomonas aeruginosa = assay: Antibiofilm activity against Pseudomonas aeruginosa PA14 after 24 hrs by crystal violet staining based assay; assay type: functional, organism-based; conditions: PA14, 24 h
Salmonella typhimurium [4] = assay: Inhibition of planktonic growth of Salmonella typhimurium ATCC 14028 after 24 hrs; assay type: organism-based, Salmonella enterica subsp. enterica serovar Typhimurium; conditions: Salmonella enterica, ATCC 14028, 24 h
Escherichia coli [5] = assay: Inhibition of planktonic growth of Escherichia coli TG1 after 24 hrs; assay type: organism-based; conditions: TG1, 24 h
Staphylococcus aureus [6] = assay: Inhibition of planktonic growth of Staphylococcus aureus SH1000 after 48 hrs; assay type: organism-based; conditions: SH1000, 48 h

| SMILES | IC50 (Escherichia coli [1]) [µM] | IC50 (Staphylococcus aureus [2]) [µM] | IC50 (Salmonella typhimurium [3]) [µM] | IC50 (Pseudomonas aeruginosa) [µM] | IC50 (Salmonella typhimurium [4]) [µM] | IC50 (Escherichia coli [5]) [µM] | IC50 (Staphylococcus aureus [6]) [µM] |
| --- | --- | --- | --- | --- | --- | --- | --- |
| Nc1ncc(-c2ccc(Cl)cc2)[nH]1 | 18 | 121 |  |  |  |  |  |
| Fc1ccc(-c2cnc(NCCCCNc3ncc(-c4ccc(F)cc4)[nH]3)[nH]2)cc1 | 6.5 | 40.6 | 5.9 | 5.6 | 46 | 4.55 | 144 |
| Nc1ncc(-c2ccc(Cl)cc2)n1CCCCCCCn1c(-c2ccc(Cl)cc2)cnc1N | 6.1 | 10.6 | 3.3 | 4.9 | 200 | > 400 | 16.2 |
| Nc1ncc(-c2ccc(Br)cc2)n1CCCn1c(-c2ccc(Br)cc2)cnc1N | 6.3 | 15 | 2.7 | 2.5 | 11.5 | 9.93 | 22 |
| Nc1ncc(-c2ccc(Cl)cc2)n1CCCn1c(-c2ccc(Cl)cc2)cnc1N | 4.5 | 26.4 | 4.1 | 3.1 | 11 | 7.56 | 26.4 |
| c1ccc(-c2cnc(NCCCCCCNc3ncc(-c4ccccc4)[nH]3)[nH]2)cc1 | 2 | 99.4 | 14.2 | 23.7 | 41.3 | 2.58 | 113 |
| c1ccc(-c2cnc(NCCCNc3ncc(-c4ccccc4)[nH]3)[nH]2)cc1 | 4.1 | 300 | 5.7 | 2.8 | 75.9 | 2.82 | 292 |
| Nc1ncc(-c2ccc(Cl)cc2)n1CCCCCCn1c(-c2ccc(Cl)cc2)cnc1N | 4 | 8.6 | 4.8 | 3.2 | 300 | > 400 | 7.4 |
| Fc1ccc(-c2cnc(NCCCCCCCNc3ncc(-c4ccc(F)cc4)[nH]3)[nH]2)cc1 | 10 | 107 | 10.4 | 7.5 | 86.1 | 7.48 | 121 |
| Nc1ncc(-c2ccc(F)cc2)n1CCCCCCCCn1c(-c2ccc(F)cc2)cnc1N | 7 | 22.4 | 1.5 | 12.2 | 100 | 7.13 | 11.7 |
| Fc1ccc(-c2cnc(NCCCCCCNc3ncc(-c4ccc(F)cc4)[nH]3)[nH]2)cc1 | 5.4 | 8.9 | 10.3 | 10.1 | 23.8 | 5.52 | 28.7 |

Further compounds by falling IC50 (Escherichia coli [1]), results first:

| IC50 (Escherichia coli [1]) [µM] | IC50 (Staphylococcus aureus [2]) [µM] | IC50 (Salmonella typhimurium [3]) [µM] | IC50 (Pseudomonas aeruginosa) [µM] | SMILES | IC50 (Salmonella typhimurium [4]) [µM] | IC50 (Escherichia coli [5]) [µM] | IC50 (Staphylococcus aureus [6]) [µM] |
| --- | --- | --- | --- | --- | --- | --- | --- |
| 146 | > 800 |  |  | Nc1ncc(-c2ccccc2)[nH]1 |  |  |  |
| 75.5 | > 800 |  |  | Nc1ncc(-c2ccc(F)cc2)[nH]1 |  |  |  |
| 31.5 | 372 | 11.6 | 15.2 | Fc1ccc(-c2cnc(NCCCCCCCCNc3ncc(-c4ccc(F)cc4)[nH]3)[nH]2)cc1 | > 800 | 47.6 | 250 |
| 19.3 | 300 | 11.2 | 21.3 | c1ccc(-c2cnc(NCCCCCCCCNc3ncc(-c4ccccc4)[nH]3)[nH]2)cc1 | > 800 | 48.7 | 230 |
| 12.3 | 28.6 | 7.7 | 5.9 | c1ccc(-c2cnc(NCCCCNc3ncc(-c4ccccc4)[nH]3)[nH]2)cc1 | 49.4 | 6.81 | 301 |
| 12.3 | 180 | 5.3 | 3.1 | Nc1ncc(-c2ccc(Cl)cc2)n1CCCCn1c(-c2ccc(Cl)cc2)cnc1N | 64 | 16.6 | 130 |
| 11.8 | 400 | 12.6 | 4.6 | c1ccc(-c2cnc(NCCCCCCCNc3ncc(-c4ccccc4)[nH]3)[nH]2)cc1 | > 800 | 12.9 | 689 |
| 8.8 | 152 |  |  | Nc1ncc(-c2ccc(Br)cc2)[nH]1 |  |  |  |
| 6.4 | 7.2 | 3.9 | 3.1 | Nc1ncc(-c2ccc(Br)cc2)n1CCCCn1c(-c2ccc(Br)cc2)cnc1N | 200 | 6.09 | 9.17 |
| 1.8 | 48 | 3.2 | 11.6 | Nc1ncc(-c2ccc(F)cc2)n1CCCCCCn1c(-c2ccc(F)cc2)cnc1N | 23.8 | > 800 | 34.4 |
